In patent US20120220562A1, “Anti-Viral Compounds” (ABBOTT LABAORATORIES, priority 2011, published 2012) one finds EC50 data, which are given here for 14 compounds.

For the assay, the system named is HCV 1b-Con1 replicon. The assay is described as follows: HCV 1b-Con1 replicon assay in the presence of 5% FBS. In kind it is cell-based. To be noted: Hepatitis C virus. For orientation: In antiviral work, replicon cells carry a viral genome segment that copies itself.
As to `COC(=O)N[C@H](C(=O)N1CCC[C@H]1c1nc2cc([C@H]3CC[C@H](c4ccc5[nH]c([C@@H]6CCCN6C(=O)[C@@H](NC(=O)OC)C6CCCCC6)nc5c4)N3c3cc(F)c(N4CCCCC4)c(F)c3)ccc2[nH]1)C1CCCCC1` [Example 5.6, dimethyl ({(2R,5R)-1-[3,5-difluoro-4-(piperidin-1-yl)phenyl]pyrrolidine-2,5-diyl}bis{1H-benzimidazole-5,2-diyl(2S)pyrrolidine-2,1-diyl [(1S)-1-cyclohexyl-2-oxoethane-2,1-diyl]})biscarbamate], the 50% effective concentration (EC50) (in general, the concentration giving half of the maximal effect) was below 0.1 nM.
The value for `COC(=O)N[C@H](C(=O)N1CCC[C@H]1c1nc2cc([C@H]3CC[C@H](c4ccc5nc([C@@H]6CCCN6C(=O)[C@@H](NC(=O)OC)C(C)C)[nH]c5c4)N3c3ccc(F)c(F)c3)ccc2[nH]1)C(C)C` [Example 4.9, methyl {(2S)-1-[(2S)-2-{5-[(2R,5R)-1-(3,4-difluorophenyl)-5-{2-[(2S)-1-{(2S)-2-[(methoxycarbonyl)amino]-3-methylbutanoyl}pyrrolidin-2-yl]-1H-benzimidazol-6-yl}pyrrolidin-2-yl]-1H-benzimidazol-2-yl}pyrrolidin-1-yl]-3-methyl-1-oxobutan-2-yl}carbamate] was below 0.1 nM; that for `COC(=O)N[C@H](C(=O)N1[C@H](c2nc3cc([C@H]4CC[C@H](c5ccc6[nH]c([C@@H]7CCC(C)(C)N7C(=O)[C@@H](NC(=O)OC)C(C)C)nc6c5)N4c4ccc(C(C)(C)C)cc4)ccc3[nH]2)CCC1(C)C)C(C)C` [Example 3.11, methyl {(2S)-1-[(5.5)-5-{5-[(2R,5R)-1-(4-tert-butylphenyl)-5-{2-[(2S)-1-{(2S)-2-[(methoxycarbonyl)amino]-3-methylbutanoyl}-5,5-dimethylpyrrolidin-2-yl]-1H-benzimidazol-5-yl}pyrrolidin-2-yl]-1H-benzimidazol-2-yl}-2,2-dimethylpyrrolidin-1-yl]-3-methyl-1-oxobutan-2-yl}carbamate] was below 0.1 nM; that for `COC(=O)N[C@H](C(=O)N1C[C@H](F)C[C@H]1c1nc2cc([C@H]3CC[C@H](c4ccc5[nH]c([C@@H]6C[C@@H](F)CN6C(=O)[C@@H](NC(=O)OC)C(C)C)nc5c4)N3c3cc(F)c(N4CCCCC4)c(F)c3)ccc2[nH]1)C(C)C` [Example 4.59, methyl {(2S)-1-[(2S,4R)-2-{5-[(2R,5R)-1-[3,5-difluoro-4-(piperidin-1-yl)phenyl]-5-{2-[(2S,4R)-4-fluoro-1-{(2S)-2-[(methoxycarbonyl)amino]-3-methylbutanoyl}pyrrolidin-2-yl]-1H-benzimidazol-5-yl}pyrrolidin-2-yl]-1H-benzimidazol-2-yl}-4-fluoropyrrolidin-1-yl]-3-methyl-1-oxobutan-2-yl}carbamate] was below 0.1 nM.
The value for `COC(=O)N[C@H](C(=O)N1CCC[C@H]1c1nc2cc([C@@H]3CC[C@@H](c4ccc5[nH]c([C@@H]6CCCN6C(=O)[C@@H](NC(=O)OC)C(C)C)nc5c4)N3c3ccc(N4CCCCC4)c(F)c3)ccc2[nH]1)C(C)C` [Example 3.15, methyl {(2S)-1-[(2S)-2-{5-[(2S,55)-1-[3-fluoro-4-(piperidin-1-yl)phenyl]-5-{2-[(2S)-1-{(2S)-2-[(methoxycarbonyl)amino]-3-methylbutanoyl}pyrrolidin-2-yl]-1H-benzimidazol-5-yl}pyrrolidin-2-yl]-1H-benzimidazol-2-yl}pyrrolidin-1-yl]-3-methyl-1-oxobutan-2-yl}carbamate] was below 0.1 nM; that for `COC(=O)N[C@H](C(=O)N1CCC[C@H]1c1nc2cc([C@H]3CC[C@H](c4ccc5[nH]c([C@@H]6CCCN6C(=O)[C@@H](NC(=O)OC)C(C)C)nc5c4)N3c3ccc(-c4ccccn4)cc3)ccc2[nH]1)C(C)C` [Example 3.1, methyl {(2S)-1-[(2S)-2-(5-{(2R,5R)-5-{2-[(2S)-1-{(2S)-2-[(methoxycarbonyl)amino]-3-methylbutanoyl}pyrrolidin-2-yl]-1H-benzimidazol-5-yl}-1-[4-(pyridin-2-yl)phenyl]pyrrolidin-2-yl}-1H-benzimidazol-2-yl)pyrrolidin-1-yl]-3-methyl-1-oxobutan-2-yl}carbamate] was below 0.1 nM.
To `COC(=O)N[C@H](C(=O)N1[C@H](c2nc3cc([C@H]4CC[C@H](c5cc6nc([C@@H]7C[C@@H]8CCC[C@@H]8N7C(=O)[C@@H](NC(=O)OC)C(C)C)[nH]c6cc5F)N4c4cc(F)c(N5CCCCC5)c(F)c4)c(F)cc3[nH]2)C[C@@H]2CCC[C@@H]21)C(C)C` [Example 3.37, methyl {(2S)-1-[(2S,3aS,6aS)-2-{5-[(2R,5R)-1-[3,5-difluoro-4-(piperidin-1-yl)phenyl]-5-{6-fluoro-2-[(2S,3aS,6aS)-1-{(2S)-2-[(methoxycarbonyl)amino]-3-methylbutanoyl}octahydrocyclopenta[b]pyrrol-2-yl]-1H-benzimidazol-5-yl}pyrrolidin-2-yl]-6-fluoro-1H-benzimidazol-2-yl}hexahydrocyclopenta[b]pyrrol-1(2H)-yl]-3-methyl-1-oxobutan-2-yl}carbamate] belongs below 0.1 nM.
For the compound `COC(=O)N[C@H](C(=O)N1CCC[C@H]1c1nc2cc([C@H]3CC[C@H](c4cc5nc([C@@H]6CCCN6C(=O)[C@@H](NC(=O)OC)C(C)C)[nH]c5cc4F)N3c3cc(F)c(N4CCC(F)(c5ccccc5)CC4)c(F)c3)c(F)cc2[nH]1)C(C)C` [Example 4.62, methyl {(2S)-1-[(2S)-2-{5-[(2R,5R)-1-[3,5-difluoro-4-(4-fluoro-4-phenylpiperidin-1-yl)phenyl]-5-{6-fluoro-2-[(2S)-1-{(2S)-2-[(methoxycarbonyl)amino]-3-methylbutanoyl}pyrrolidin-2-yl]-1H-benzimidazol-5-yl}pyrrolidin-2-yl]-6-fluoro-1H-benzimidazol-2-yl}pyrrolidin-1-yl]-3-methyl-1-oxobutan-2-yl}carbamate], the EC50 is below 0.1 nM.
Consider `COC(=O)N[C@H](C(=O)N1CCC[C@H]1c1nc2cc([C@H]3CC[C@H](c4cc5nc([C@@H]6CCCN6C(=O)[C@@H](NC(=O)OC)C6CCOCC6)[nH]c5cc4F)N3c3cc(F)c(N4CCC(c5ccccc5)CC4)c(F)c3)c(F)cc2[nH]1)C1CCOCC1` [Example 4.39, dimethyl ({(2R,5R)-1-[3,5-difluoro-4-(4-phenylpiperidin-1-yl)phenyl]pyrrolidine-2,5-diyl}bis{(6-fluoro-1H-benzimidazole-5,2-diyl)(2S)pyrrolidine-2,1-diyl[(1S)-2-oxo-1-(tetrahydro-2H-pyran-4-yl)ethane-2,1-diyl]})biscarbamate], for which the half-maximal effective concentration (EC50) is below 0.1 nM.
The value for `COC(=O)N[C@H](C(=O)N1CCC[C@H]1c1nc2ccc([C@H]3CC[C@H](c4ccc5nc([C@@H]6CCCN6C(=O)[C@@H](NC(=O)OC)C(C)C)[nH]c5c4)N3c3ccc(S(C)(=O)=O)c(F)c3)cc2[nH]1)C(C)C` [Example 2.7, methyl {(2S)-1-[(2S)-2-{6-[(2R,5R)-1-[3-fluoro-4-(methylsulfonyl)phenyl]-5-{2-[(2S)-1-{(2S)-2-[(methoxycarbonyl)amino]-3-methylbutanoyl}pyrrolidin-2-yl]-1H-benzimidazol-6-yl}pyrrolidin-2-yl]-1H-benzimidazol-2-yl}pyrrolidin-1-yl]-3-methyl-1-oxobutan-2-yl}carbamate] was 1 to 10 nM.
As for `COC(=O)N[C@H](C(=O)N1CCC[C@H]1c1nc2cc([C@H]3CC[C@H](c4ccc5nc([C@@H]6CCCN6C(=O)[C@@H](NC(=O)OC)C(C)C)[nH]c5c4)N3c3cc(F)c(N4CCC(c5ccccc5)C4)c(F)c3)ccc2[nH]1)C(C)C` (stereo partly drawn) [Example 4.33, methyl {(2S)-1-[(2S)-2-{5-[(2R,5R)-1-[3,5-difluoro-4-(3-phenylpyrrolidin-1-yl)phenyl]-5-{2-[(2S)-1-{(2S)-2-[(methoxycarbonyl)amino]-3-methylbutanoyl}pyrrolidin-2-yl]-1H-benzimidazol-6-yl}pyrrolidin-2-yl]-1H-benzimidazol-2-yl}pyrrolidin-1-yl]-3-methyl-1-oxobutan-2-yl}carbamate], the EC50 was below 0.1 nM.
On to `COC(=O)N[C@H](C(=O)N1CCC[C@H]1c1nc2cc([C@@H]3CC[C@@H](c4ccc5[nH]c([C@@H]6CCCN6C(=O)[C@@H](NC(=O)OC)[C@@H](C)OC)nc5c4)N3c3ccc(C4CC4)cc3F)ccc2[nH]1)[C@@H](C)OC` [Example 3.13, methyl {(2S,3R)-1-[(2S)-2-{5-[(2S,5S)-1-(4-cyclopropyl-2-fluorophenyl)-5-(2-{(2S)-1-[N-(methoxycarbonyl)-O-methyl-L-threonyl]pyrrolidin-2-yl}-1H-benzimidazol-5-yl)pyrrolidin-2-yl]-1H-benzimidazol-2-yl}pyrrolidin-1-yl]-3-methoxy-1-oxobutan-2-yl}carbamate], for which the EC50 was below 0.1 nM.
To `COC(=O)N[C@H](C(=O)N1CCC[C@H]1c1nc2cc([C@H]3CC[C@H](c4ccc5[nH]c([C@@H]6CCCN6C(=O)[C@@H](NC(=O)OC)C(C)C)nc5c4)N3c3cc(F)c(N4CCC(c5cc(F)cc(F)c5)CC4)c(F)c3)ccc2[nH]1)C(C)C` [Example 3.45, methyl {(2S)-1-[(2S)-2-{5-[(2R,5R)-1-{4-[4-(3,5-difluorophenyl)piperidin-1-yl]-3,5-difluorophenyl}-5-{2-[(2S)-1-{(2S)-2-[(methoxycarbonyl)amino]-3-methylbutanoyl}pyrrolidin-2-yl]-1H-benzimidazol-5-yl}pyrrolidin-2-yl]-1H-benzimidazol-2-yl}pyrrolidin-1-yl]-3-methyl-1-oxobutan-2-yl}carbamate] belongs below 0.1 nM; to `CCC(CC)C(NC(=O)OC)C(=O)N1CCC[C@H]1c1nc2cc([C@H]3CC[C@H](c4ccc5[nH]c([C@@H]6CCCN6C(=O)C(NC(=O)OC)C(CC)CC)nc5c4)N3c3cc(F)c(N4CCC(c5ccccc5)CC4)c(F)c3)ccc2[nH]1` (stereo partly drawn) [Example 3.29, methyl {1-[(2S)-2-{5-[(2R,5R)-1-[3,5-difluoro-4-(4-phenylpiperidin-1-yl)phenyl]-5-{2-[(2S)-1-{3-ethyl-2-[(methoxycarbonyl)amino]pentanoyl}pyrrolidin-2-yl]-1H-benzimidazol-5-yl}pyrrolidin-2-yl]-1H-benzimidazol-2-yl}pyrrolidin-1-yl]-3-ethyl-1-oxopentan-2-yl}carbamate], below 0.1 nM.
